In ChEMBL document CHEMBL1201862, “PubChem BioAssay data set” (2004):
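Interpolation was linear, between the two tested concentrations surrounding the appropriate level; five concentrations were tested over 48 hours in 96-well plates. GI50 is the concentration that inhibits growth by half.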 The source made the active and inactive calls. Rule as the data show it: active = GI50 up to about 1.1 µM and inactive = higher.

Columns and labels:
Assay in all cases: growth of human tumour cells (NCI), 48 h
DU-145 = test system: DU-145
MDA-N = test system: MDA-N
PC-3 = test system: PC-3
MDA-MB-435 = test system: MDA-MB-435
BT-549 = test system: BT-549
Hs-578T = test system: Hs-578T
RXF 631 = test system: RXF 631
LXFL 529 = test system: LXFL 529
786-0 = test system: 786-0

Row | SMILES | GI50 (DU-145) | GI50 (MDA-N) | GI50 (PC-3) | GI50 (MDA-MB-435) | GI50 (BT-549) | GI50 (Hs-578T) | GI50 (RXF 631) | GI50 (LXFL 529) | GI50 (786-0)
1 | CC(=O)OC[C@H]1[C@@H]2C(CC[C@]13CO3)OC(=O)CC(C)[C@]2(C)CCc1ccoc1 (stereo partly specified) | > 100 µM (inactive) | > 100 µM (inactive) | > 100 µM (inactive) | > 100 µM (inactive) | > 100 µM (inactive) | > 100 µM (inactive) | – | – | –
2 | C=CC1OC(CCCOC(=O)C(C)(C)C)O[C@@H]1CC (stereo partly specified) | > 100 µM (inactive) | > 100 µM (inactive) | > 100 µM (inactive) | > 100 µM (inactive) | – | > 100 µM (inactive) | – | – | –
3 | Cc1ccc(C)c(NC(=O)C(=O)C(C(=O)c2ccc3ccccc3c2)C2OC(=O)c3ccccc32)c1 (stereo unspecified) | – | – | – | – | – | – | 16.1 µM (inactive) | 7.59 µM (inactive) | –
4 | OC(c1cccnc1Cl)c1nc2ccccc2c2ccnc(Cl)c12 (stereo unspecified) | 23 µM (inactive) | 0.69 µM (active) | 2.11 µM (inactive) | 0.628 µM (active) | 5.79 µM (inactive) | 2.72 µM (inactive) | – | – | –
5 | NNC(N)Nc1ccccc1 (stereo unspecified) | > 100 µM (inactive) | > 100 µM (inactive) | > 100 µM (inactive) | > 100 µM (inactive) | > 100 µM (inactive) | > 100 µM (inactive) | – | – | –
6 | CCOP(=O)(COCCn1nc(Br)c(=O)[nH]c1=O)OCC | > 100 µM (inactive) | > 100 µM (inactive) | > 100 µM (inactive) | > 100 µM (inactive) | – | > 100 µM (inactive) | – | – | –
7 | CC(C)=CC1CC(=O)C1(C)Sc1ccccc1 (stereo unspecified) | – | – | – | – | – | – | 28 µM (inactive) | 42.7 µM (inactive) | 50.7 µM (inactive)
8 | CCOC(=O)c1c(NC(=O)Nc2ccccc2)c(C(N)=O)c2n1CCCCC2 | > 100 µM (inactive) | – | > 100 µM (inactive) | > 100 µM (inactive) | > 100 µM (inactive) | > 100 µM (inactive) | – | – | > 100 µM (inactive)
9 | CC(c1ccccc1)/[N+]([O-])=C/c1ccccc1 (stereo unspecified) | – | – | – | – | – | – | – | > 100 µM (inactive) | –
10 | C=C1C(=O)OC2/C=C(\C(=O)O)CC/C=C(\C)CC(OC(=O)/C=C(\C)CC)C12 (stereo unspecified) | – | – | – | – | – | – | – | 16.9 µM (inactive) | –
11 | O=S(=O)(c1ccccc1)C1CC(c2nc3ccccc3[nH]2)=NO1 (stereo unspecified) | > 100 µM (inactive) | > 100 µM (inactive) | > 100 µM (inactive) | 72.3 µM (inactive) | > 100 µM (inactive) | > 100 µM (inactive) | – | – | –
12 | Cc1cc(O)c(C(C)C)cc1SC#N | 15.5 µM (inactive) | – | 17.1 µM (inactive) | 13.7 µM (inactive) | 19.6 µM (inactive) | 20.5 µM (inactive) | – | – | –
13 | O=C(N/C=C1\C(=O)Oc2ccccc2C1=O)NC1CCCCC1 | – | – | – | – | – | – | – | 63.1 µM (inactive) | –
14 | CN1C[C@H]2[C@@H](C1=O)[C@H](c1ccc([N+](=O)[O-])cc1)ON2C | > 100 µM (inactive) | > 100 µM (inactive) | > 100 µM (inactive) | > 100 µM (inactive) | – | > 100 µM (inactive) | – | – | –
15 | CCN1c2ccccc2NC(=S)c2c(-c3ccccc3)n[nH]c21 | 39.9 µM (inactive) | 16.4 µM (inactive) | 25.6 µM (inactive) | 18.4 µM (inactive) | 45.5 µM (inactive) | 75.5 µM (inactive) | – | – | –
16 | O=C(Nc1ccc(Cl)cc1)C(=O)C(C(=O)c1ccccc1-c1ccccc1)C1OC(=O)c2ccccc21 (stereo unspecified) | – | – | – | – | – | – | – | 16 µM (inactive) | –
17 | O=C(O)C1=C(CO)Oc2cc3c(cc2C1c1ccc2c(c1)OCO2)OCO3 (stereo unspecified) | – | – | – | – | – | – | > 100 µM (inactive) | – | –
